In patent US20240245783A1, “METALLO-BETA-LACTAMASE INHIBITOR” (priority 2021, published 2024):

Columns and labels:
[1] = system: multidrug-resistant Pseudomonas aeruginosa; test: Growth suppression of multidrug-resistant Pseudomonas aeruginosa clinical isolates (Test Example 7); type: cell-based; details: MEPM 2 μg/ml alone, compound 8 20 μM (15.5 μg/ml) alone, Combination = both, 3 wells
Experimental: The effect of NODA-GA-conjugated doripenem (compound 8) on the susceptibility of a Pseudomonas aeruginosa clinical isolate to a carbapenem antibacterial agent was evaluated by the following method. The Pseudomonas aeruginosa clinical isolate was cultured overnight with shaking in LB medium. The bacterial solution was diluted to 1/1000 with LB medium, used as a test bacterial solution, and then seeded in a 96-well plate. Meropenem (Wako Pure Chemical Industries, Ltd.) was added to this bacterial solution in such a manner that the concentration was 2 μg/ml. The effect of NODA-GA-doripenem alone was also examined. The bacteria were cultured in an incubator at 37° C. for one day, and the growth at that time was measured by turbidity (655 nm).
MEPM in Table 1 is meropenem (2 μg/ml) administered alone; NODA-GA-doripenem is compound 8 (20 μM; 15.5 μg/ml) administered alone; Combination means a combined use of meropenem (2 μg/ml) and compound 8 (20 μM; 15.5 μg/ml).

[2] = system: Multidrug-resistant Pseudomonas aeruginosa strain MR4; test: Growth inhibition of Pseudomonas aeruginosa strain MR4 (Test Example 8); type: cell-based; details: after 24 hours, compared with doripenem
Experimental: Multidrug-resistant Pseudomonas aeruginosa strain MR4 was cultured with doripenem or compound 8, and the bacterial load was assessed by turbidity after 24 hours. FIG. 18 depicts the results.

C[C@@H](O)[C@H]1C(=O)N2C(C(=O)O)=C(S[C@@H]3CN[C@H](CNS(=O)(=O)NC(=O)CCC(C(=O)O)N4CCN(CC(=O)O)CCN(CC(=O)O)CC4)C3)[C@H](C)[C@H]12 (stereo partly drawn) [compound 8, NODA-GA-conjugated doripenem]
suppression of bacterial growth ([1]; strain 808#1): X (x indicates that the number of wells in which suppression of bacterial growth was confirmed was 1 or less)
suppression of bacterial growth ([1]; strain 808#2): X (x indicates that the number of wells in which suppression of bacterial growth was confirmed was 1 or less)
suppression of bacterial growth ([1]; strain MR1): ◯ (◯ indicates that bacterial growth was suppressed in all 3 wells)
suppression of bacterial growth ([1]; strain MR2): ◯ (◯ indicates that bacterial growth was suppressed in all 3 wells)
suppression of bacterial growth ([1]; strain MR3): Δ (Δ indicates that bacterial growth was suppressed in 2 wells out of 3 wells)
suppression of bacterial growth ([1]; strain MR4): Δ (Δ indicates that bacterial growth was suppressed in 2 wells out of 3 wells)
suppression of bacterial growth ([1]; strain MR5): ◯ (◯ indicates that bacterial growth was suppressed in all 3 wells)
suppression of bacterial growth ([1]; strain MR6): Δ (Δ indicates that bacterial growth was suppressed in 2 wells out of 3 wells)
suppression of bacterial growth ([1]; strain MR7): ◯ (◯ indicates that bacterial growth was suppressed in all 3 wells)
suppression of bacterial growth ([1]; strain MR8): X (x indicates that the number of wells in which suppression of bacterial growth was confirmed was 1 or less)
suppression of bacterial growth ([1]; strain MR9): ◯ (◯ indicates that bacterial growth was suppressed in all 3 wells)
suppression of bacterial growth ([1]; strain MR10): Δ (Δ indicates that bacterial growth was suppressed in 2 wells out of 3 wells)
suppression of bacterial growth ([1]; strain MR11): X (x indicates that the number of wells in which suppression of bacterial growth was confirmed was 1 or less)
suppression of bacterial growth ([1]; strain MR12): X (x indicates that the number of wells in which suppression of bacterial growth was confirmed was 1 or less)
suppression of bacterial growth ([1]; strain MR13): X (x indicates that the number of wells in which suppression of bacterial growth was confirmed was 1 or less)
suppression of bacterial growth ([1]; strain MR14): Δ (Δ indicates that bacterial growth was suppressed in 2 wells out of 3 wells)
suppression of bacterial growth ([1]; strain MR15): ◯ (◯ indicates that bacterial growth was suppressed in all 3 wells)
suppression of bacterial growth ([1]; strain MR16): X (x indicates that the number of wells in which suppression of bacterial growth was confirmed was 1 or less)
suppression of bacterial growth ([1]; strain NM1): Δ (Δ indicates that bacterial growth was suppressed in 2 wells out of 3 wells)
suppression of bacterial growth ([1]; strain NM2): Δ (Δ indicates that bacterial growth was suppressed in 2 wells out of 3 wells)
suppression of bacterial growth ([1]; strain NM3): ◯ (◯ indicates that bacterial growth was suppressed in all 3 wells)
suppression of bacterial growth ([1]; strain NM4): ◯ (◯ indicates that bacterial growth was suppressed in all 3 wells)
suppression of bacterial growth ([1]; strain NM5): X (x indicates that the number of wells in which suppression of bacterial growth was confirmed was 1 or less)
anti-Pseudomonas aeruginosa effect (bacterial load by turbidity) [2]: significantly improved compared to that of doripenem
